Each structure is given as a SMILES string.

Broadly, the IC50 is the concentration that inhibits the measured activity by half.

For one data set, the target named is T1, DPP-IV (Homo sapiens, UniProt P27487).
T1 construct: an extract of the human colon carcinoma cell line Caco-2 is used as the DPP IV source; endogenous in cells; host or cells: Caco-2 (human colon carcinoma), differentiated to induce DPP-IV expression; Nonidet-P40 solubilised extract
The data set can be described thus: DPP-IV assay with extract of Caco-2 cells as DPP IV source (AFC substrate, fluorescence). The data set is classed as biochemical. The following applies: extract of human colon carcinoma cell line Caco-2; substrate 100 μM; 60 minutes at ambient temperature; read-out: DPP IV inhibition IC50. Here is the method: The differentiation of the cells in order to induce the DPP-IV expression was carried out in accordance with the description by Reiher et al. in an article entitled “Increased expression of intestinal cell line Caco-2”, which appeared in Proc. Natl. Acad. Sci. Vol. 90, pp. 5757-5761 (1993). The cell extract was obtained from cells solubilised in a buffer (10 mM Tris HCl, 0.15 M NaCl, 0.04 t.i.u. aprotinin, 0.5% Nonidet-P40, pH 8.0) by centrifugation at 35,000 g for 30 minutes at 4° C. (to remove cell debris).
The DPP-IV assay was carried out as follows:
50 μl of substrate solution (AFC; AFC is amido-4-trifluoromethylcoumarin), final concentration 100 μM, were placed in black microtitre plates. 20 μl of assay buffer (final concentrations 50 mM Tris HCl pH 7.8, 50 mM NaCl, 1% DMSO) was pipetted in. The reaction was started by the addition of 30 μl of solubilised Caco-2 protein (final concentration 0.14 μg of protein per well). The test substances under investigation were typically added prediluted to 20 μl, while the volume of assay buffer was then reduced accordingly. […] Then the fluorescence was measured in a Victor 1420 Multilabel Counter, with the excitation wavelength at 405 nm and the emission wavelength at 535 nm. […] The potency of the test substances in question, expressed as IC50 values, were calculated from dosage/activity curves consisting of 11 measured points in each case.

The next data set deals with rats. Kind of data set: Tolerability in rats after oral administration. The data set is classed as in vivo. The following applies: oral administration of 10 mg/kg.

T1 sequence (P27487 whole entry): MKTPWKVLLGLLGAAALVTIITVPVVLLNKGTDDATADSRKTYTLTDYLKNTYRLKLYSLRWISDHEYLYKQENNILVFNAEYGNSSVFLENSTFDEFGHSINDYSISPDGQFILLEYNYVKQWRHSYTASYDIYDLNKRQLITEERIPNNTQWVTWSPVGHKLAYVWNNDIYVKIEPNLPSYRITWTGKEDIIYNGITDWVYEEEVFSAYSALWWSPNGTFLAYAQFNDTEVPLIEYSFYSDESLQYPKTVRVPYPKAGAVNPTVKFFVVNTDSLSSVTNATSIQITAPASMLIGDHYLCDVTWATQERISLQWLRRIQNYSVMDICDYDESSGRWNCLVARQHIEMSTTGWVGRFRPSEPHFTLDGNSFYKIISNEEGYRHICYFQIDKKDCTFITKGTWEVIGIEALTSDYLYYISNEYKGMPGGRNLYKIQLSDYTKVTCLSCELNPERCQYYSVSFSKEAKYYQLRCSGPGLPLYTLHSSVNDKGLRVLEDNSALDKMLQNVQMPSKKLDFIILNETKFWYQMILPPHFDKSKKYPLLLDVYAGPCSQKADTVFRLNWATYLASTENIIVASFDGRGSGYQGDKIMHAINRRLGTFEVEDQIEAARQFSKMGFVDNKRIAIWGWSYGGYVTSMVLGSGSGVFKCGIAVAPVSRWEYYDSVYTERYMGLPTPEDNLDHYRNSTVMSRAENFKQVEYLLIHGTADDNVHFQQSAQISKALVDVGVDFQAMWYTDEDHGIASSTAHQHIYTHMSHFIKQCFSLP

Consider `CC#CCn1c(N2CCC[C@@H](N)C2)nc2c1c(=O)n(Cc1nc(C)c3ccccc3n1)c(=O)n2CC(=O)OCC` [1(3), (R)-1-(4-methyl-quinazolin-2-ylmethyl)-3-(ethoxycarbonylmethyl)-7-(but-2-ynyl)-8-(3-amino-piperidin-1-yl)-xanthine], for which the IC50 on DPP-IV stood at 3 nM.
`CC#CCn1c(N2CCC[C@@H](N)C2)nc2c1c(=O)n(Cc1nc(C)c3ccccc3n1)c(=O)n2CC(=O)OC` [Example 1(2), (R)-1-(4-methyl-quinazolin-2-ylmethyl)-3-(methoxycarbonylmethyl)-7-(but-2-ynyl)-8-(3-amino-piperidin-1-yl)-xanthine]: the toxic side effects result with rats is recorded as “no toxic side effects could be detected”. On DPP-IV, the IC50 was found to be 3 nM.

The values above are taken from patent US7495003B2, “8-(3-amino-piperidin-1-yl)-7-(but-2-ynyl)-xanthines, the preparation thereof and their use as pharmaceutical compositions” (Boehringer Ingelheim International GmbH, priority 2004, dated 2009).
